Values of other authors as cited in patent publication US9814239B2, “Antimicrobial complexes” (priority 2010, dated 2017).

Experiments:
Saccharomyces cerevisiae = conditions: Amoeba (so in the source)
Aspergillus niger = conditions: Molds
Bacillus subtilis = conditions: Gram Positive
Pseudomonas aeruginosa = conditions: Gram Negative
Proteus vulgaris = conditions: Gram Negative
Streptococcus faecalis = conditions: Gram Positive
Staphylococcus aureus = conditions: Gram Positive
Escherichia coli = conditions: Gram Negative
Salmonella typhimurium = conditions: Gram Negative
Endomycopsis albicans = conditions: Yeasts

SMILES: [O-][n+]1ccccc1S [Sodium Omadine, sodium omadine]
- Fungicide concentration (ppm) (Saccharomyces cerevisiae): <0.25 ppm
- Fungicide concentration (ppm) (Aspergillus niger): <0.25 ppm
- Bactericide concentration (ppm) (Bacillus subtilis): 0.5 ppm
- Bactericide concentration (ppm) (Pseudomonas aeruginosa): 128 ppm
- Bactericide concentration (ppm) (Proteus vulgaris): 8 ppm
- Bactericide concentration (ppm) (Streptococcus faecalis): 2 ppm
- Bactericide concentration (ppm) (Staphylococcus aureus): 16 ppm
- Bactericide concentration (ppm) (Escherichia coli): 16 ppm
- Bactericide concentration (ppm) (Salmonella typhimurium): 16 ppm
- Fungicide concentration (ppm) (Endomycopsis albicans): <0.25 ppm
